Assay results taken from ChEMBL document CHEMBL1201862, “PubChem BioAssay data set” (2004).
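Test compounds were applied to cells in 96-well plates for 48 hours at 5 doses. Abbreviation: GI50, concentration required for 50% inhibition of growth.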 Active and inactive are the calls of the source. Rule as the data show it: active = GI50 up to about 1.1 µM and inactive = higher.

Key:
Assay in all cases: NCI anticancer screen, dose series, 48 h
[1] = system: MCF7
[2] = system: SF-539
[3] = system: PC-3
[4] = system: OVCAR-5
[5] = system: SK-OV-3
[6] = system: SK-MEL-5
[7] = system: Hs-578T
[8] = system: UACC-62
[9] = system: NCI-H522
[10] = system: SK-MEL-28
[11] = system: NCI-H23
[12] = system: HCT-15
[13] = system: EKVX
[14] = system: COLO 205
[15] = system: U-251
[16] = system: A498
[17] = system: UACC-257
[18] = system: Malme-3M
[19] = system: SNB-19
[20] = system: M14

Row | Compound | GI50 [1] | GI50 [2] | GI50 [3] | GI50 [4] | GI50 [5] | GI50 [6] | GI50 [7] | GI50 [8] | GI50 [9] | GI50 [10] | GI50 [11] | GI50 [12] [µM] | GI50 [13] | GI50 [14] | GI50 [15] | GI50 [16] | GI50 [17] | GI50 [18] | GI50 [19] | GI50 [20]
1 | O=C(O)c1[nH]c2c([N+](=O)[O-])cc([N+](=O)[O-])cc2c1C(=O)O | > 100 µM (inactive) | > 100 µM (inactive) | > 100 µM (inactive) | > 100 µM (inactive) | > 100 µM (inactive) | > 100 µM (inactive) | > 100 µM (inactive) | > 100 µM (inactive) | 78.9 µM (inactive) | > 100 µM (inactive) | > 100 µM (inactive) | > 100 | > 100 µM (inactive) | > 100 µM (inactive) | > 100 µM (inactive) | > 100 µM (inactive) | > 100 µM (inactive) | > 100 µM (inactive) | > 100 µM (inactive) | 56.1 µM (inactive)
2 | O=C1OC(c2ccc(O)c(-c3ccccc3)c2)(c2ccc(O)c(-c3ccccc3)c2)c2c(Cl)c(Cl)c(Cl)c(Cl)c21 | > 100 µM (inactive) | > 100 µM (inactive) | > 100 µM (inactive) | > 100 µM (inactive) | > 100 µM (inactive) | > 100 µM (inactive) | > 100 µM (inactive) | > 100 µM (inactive) | > 100 µM (inactive) | > 100 µM (inactive) | > 100 µM (inactive) | > 100 | > 100 µM (inactive) | > 100 µM (inactive) | > 100 µM (inactive) | > 100 µM (inactive) | > 100 µM (inactive) | > 100 µM (inactive) | > 100 µM (inactive) | > 100 µM (inactive)
3 | NNC(=O)CNc1cccc(Br)c1 | > 100 µM (inactive) | > 100 µM (inactive) | > 100 µM (inactive) | > 100 µM (inactive) | > 100 µM (inactive) | > 100 µM (inactive) | > 100 µM (inactive) | > 100 µM (inactive) | > 100 µM (inactive) | > 100 µM (inactive) | > 100 µM (inactive) | > 100 | > 100 µM (inactive) | > 100 µM (inactive) | > 100 µM (inactive) | > 100 µM (inactive) | > 100 µM (inactive) | > 100 µM (inactive) | > 100 µM (inactive) | > 100 µM (inactive)
4 | C/C(=N\N=C(/S)N(C)C)c1cccc[n+]1[O-] | 8.05 µM (inactive) | 47.4 µM (inactive) | 15.4 µM (inactive) | 35.9 µM (inactive) | 70.5 µM (inactive) | 27.7 µM (inactive) | 92.9 µM (inactive) | 16.1 µM (inactive) | 4.05 µM (inactive) | 73.5 µM (inactive) | 12.6 µM (inactive) | 1.45 | 25.9 µM (inactive) | 0.82 µM (active) | 44.3 µM (inactive) | > 100 µM (inactive) | 4.38 µM (inactive) | 43.7 µM (inactive) | 91 µM (inactive) | 25.9 µM (inactive)
5 | O=CNc1ncn[nH]1 | > 100 µM (inactive) | > 100 µM (inactive) | > 100 µM (inactive) | > 100 µM (inactive) | > 100 µM (inactive) | > 100 µM (inactive) | > 100 µM (inactive) | > 100 µM (inactive) | > 100 µM (inactive) | > 100 µM (inactive) | > 100 µM (inactive) | > 100 | > 100 µM (inactive) | > 100 µM (inactive) | > 100 µM (inactive) | > 100 µM (inactive) | > 100 µM (inactive) | > 100 µM (inactive) | > 100 µM (inactive) | > 100 µM (inactive)
6 | O=C1C=C(Br)C(=O)C12CCc1ccccc12 (stereo not given) | 16.5 µM (inactive) | 17.4 µM (inactive) | 17.7 µM (inactive) | 18 µM (inactive) | 27.4 µM (inactive) | 19.7 µM (inactive) | 35.3 µM (inactive) | 16.8 µM (inactive) | 3.36 µM (inactive) | 12.2 µM (inactive) | 19.7 µM (inactive) | 7.53 | 25.4 µM (inactive) | 4.05 µM (inactive) | 21.7 µM (inactive) | 4.61 µM (inactive) | 19.4 µM (inactive) | 14.6 µM (inactive) | 32.9 µM (inactive) | 12.4 µM (inactive)
7 | CC(=O)O[C@@H](C1C[C@@H](C)[C@H]2[C@@](O)(O1)[C@H](O)[C@@]1(C)C3=CC[C@H]4C(C)(C)[C@@H](OC5OCC(O)C(O)C5O)CC[C@@]45C[C@@]35CC[C@]21C)C(C)(C)O (stereo not given in full) | 17.9 µM (inactive) | 15.7 µM (inactive) | 21.7 µM (inactive) | 28.6 µM (inactive) | 26.5 µM (inactive) | 17.8 µM (inactive) | 30.1 µM (inactive) | 18.5 µM (inactive) | 17.8 µM (inactive) | 23.2 µM (inactive) | 22.4 µM (inactive) | 28.4 | 24.2 µM (inactive) | 22 µM (inactive) | 16.8 µM (inactive) | 23.8 µM (inactive) | 19.7 µM (inactive) | 23.8 µM (inactive) | 34.4 µM (inactive) | 29.3 µM (inactive)
8 | OCCN1CCN(c2nc(N3CCCC3)c3nc(Cl)c(NCc4ccccc4)nc3n2)CC1 | 4.31 µM (inactive) | 5.81 µM (inactive) | 9.27 µM (inactive) | 13.1 µM (inactive) | 13.7 µM (inactive) | 3.51 µM (inactive) | 8.61 µM (inactive) | 4.65 µM (inactive) | 5.04 µM (inactive) | 4.09 µM (inactive) | 14.5 µM (inactive) | 2.84 | 11.3 µM (inactive) | 2.47 µM (inactive) | 5.65 µM (inactive) | 12.5 µM (inactive) | 5.15 µM (inactive) | 6.56 µM (inactive) | 7.62 µM (inactive) | 3.03 µM (inactive)
9 | CCOC(=O)c1ccc(Nc2nc3ccccc3n3cccc23)cc1 | 32 µM (inactive) | 35.2 µM (inactive) | 36.6 µM (inactive) | > 100 µM (inactive) | 27.4 µM (inactive) | 66.8 µM (inactive) | 42.9 µM (inactive) | 40.8 µM (inactive) | 88.1 µM (inactive) | 88.1 µM (inactive) | 63.8 µM (inactive) | 21.8 | 31.3 µM (inactive) | > 100 µM (inactive) | 28.4 µM (inactive) | 46 µM (inactive) | > 100 µM (inactive) | > 100 µM (inactive) | 52.5 µM (inactive) | > 100 µM (inactive)
10 | Cc1cc(S(=O)(=O)[N-]C(=C(C#N)C#N)[n+]2ccc(N(C)C)cc2)c(SCC(=O)O)cc1Cl | > 100 µM (inactive) | > 100 µM (inactive) | > 100 µM (inactive) | > 100 µM (inactive) | > 100 µM (inactive) | > 100 µM (inactive) | > 100 µM (inactive) | > 100 µM (inactive) | 45.8 µM (inactive) | > 100 µM (inactive) | > 100 µM (inactive) | > 100 | > 100 µM (inactive) | > 100 µM (inactive) | > 100 µM (inactive) | > 100 µM (inactive) | > 100 µM (inactive) | 22.6 µM (inactive) | > 100 µM (inactive) | > 100 µM (inactive)
11 | Cc1cc(C)c2c(n1)S(=O)(=O)N(CCCN1CCN(c3cccc(C(F)(F)F)c3)CC1)c1c-2nn(C)c1C | 38.5 µM (inactive) | > 100 µM (inactive) | 25.9 µM (inactive) | > 100 µM (inactive) | > 100 µM (inactive) | 23.1 µM (inactive) | > 100 µM (inactive) | 58.7 µM (inactive) | 57.4 µM (inactive) | 60 µM (inactive) | 61.2 µM (inactive) | 44.5 | > 100 µM (inactive) | 26.1 µM (inactive) | > 100 µM (inactive) | > 100 µM (inactive) | 32.5 µM (inactive) | > 100 µM (inactive) | > 100 µM (inactive) | 43.9 µM (inactive)
12 | COC(=O)C1(Cc2ccccc2)Cc2cc3c(cc2C1=O)CCC3 (stereo not given) | 13.9 µM (inactive) | 43.2 µM (inactive) | 26.1 µM (inactive) | 58.9 µM (inactive) | 41.1 µM (inactive) | 16.6 µM (inactive) | 49.7 µM (inactive) | 33.4 µM (inactive) | 21.2 µM (inactive) | 46.2 µM (inactive) | 56.2 µM (inactive) | 31.6 | 25.3 µM (inactive) | 19.5 µM (inactive) | 33.6 µM (inactive) | 28.2 µM (inactive) | 36.9 µM (inactive) | 22.5 µM (inactive) | 47.1 µM (inactive) | 20 µM (inactive)
13 | COc1ccc(Cc2cc(OC)c(OC)c(OC)c2)cc1 | 0.203 µM (active) | 0.224 µM (active) | 0.234 µM (active) | 8.83 µM (inactive) | 0.308 µM (active) | 0.167 µM (active) | 0.215 µM (active) | 0.129 µM (active) | 0.19 µM (active) | 0.479 µM (active) | 0.395 µM (active) | 0.114 | 1.14 µM (inactive) | 0.143 µM (active) | 0.261 µM (active) | 0.27 µM (active) | 0.509 µM (active) | 0.387 µM (active) | 0.324 µM (active) | 0.411 µM (active)
14 | Cc1ccc2c(O)cc(-c3cccs3)nc2n1 | 3.86 µM (inactive) | 8.49 µM (inactive) | 11 µM (inactive) | > 22.3 µM (inactive) | 30.3 µM (inactive) | 4.72 µM (inactive) | 11.6 µM (inactive) | 9.04 µM (inactive) | 4.58 µM (inactive) | 7.33 µM (inactive) | 7.71 µM (inactive) | 3.78 | 57 µM (inactive) | 6.98 µM (inactive) | 12.1 µM (inactive) | > 54.8 µM (inactive) | > 100 µM (inactive) | 15.3 µM (inactive) | 11.7 µM (inactive) | 6.59 µM (inactive)
